# Patent publication US20160030364A1, “Therapeutic Compositions and Uses Thereof” (MANUKA HEALTH NEW ZEALAND LIMITED, priority 2013, published 2016)
# Values joined by “and” are separate entries in the source; they are usually repeats but may differ in a detail not shown here. Identical values can stand only once.
# Tests used:
# Format in all cases: cell-based
# [1] = test system: human gastric carcinoma cell line (NCI-N87); assay: MTT anti-proliferative assay, NCI-N87 (Examples 3-12); conditions: 200 μg/ml; for % inhibition / % stim. / Mean OD (570 nm): 48 hours
# Experimental: (§1) 5-phenylpenta-2,4-dienoic acid was assessed for its ability to modulate the viability and proliferation of human colorectal adenocarcinoma cells (DLD-1); human colon cancer cell line (HCT-116); human gastric carcinoma cell line (NCI-N87); and human oesophageal squamous cell carcinoma cell line (KYSE-30) as assessed by the MTT assay. The positive control, 5-fluorouracil (5-FU) was included at three concentrations; in addition to an unsupplemented cell control as a negative control in the study. The 5-phenylpenta-2,4-dienoic acid was a genuine standard with chemical structure confirmed by NMR and MS.
# (§2) The four human gastrointestinal carcinoma cell lines were revived from cryostorage and cultured in the presence of the test and reference samples. An MTT assay was then performed on the cultures to determine the effect of the samples on the cell viability and proliferation.
# (§3) The test sample 5-phenylpenta-2,4-dienoic acid, and all other test samples in Examples 4-12 (except tectochrysln) were Initially dissolved in pure ethanol to a concentration of around 13.35 mg/ml. Tectochrysin was initially dissolved in triethylene glycol mono-methyl ether to the same concentration. Working solutions were then prepared from the stock solutions by dilution to 15% ethanol/Hanks Balanced Salt Solution (ETOH)/HBSS to a concentration of 2 mg/mL solids. In the assay the final concentration of the samples was 200 μg/ml with a final EtOH concentration of 1.5%. Final concentrations of test compounds and propolis prepared as above are as noted in Example 3.
# (§4) • 1. Human colorectal adenocarcinoma cells (ATCC CCI-221, DLD-1)(ATCC, Bethesda, Md., USA) • 2. Human gastric carcinoma cells (ATCC CRL-5822, NCI-N87)(ATCC, Bethesda, Md., USA) • 3. Human oesophageal squamous cell carcinoma (ECACC, KYSE-30)(Sigma Aldrich, Auckland, NZ) • 4. Human colon carcinoma cells (ECACC HCT-116)(Sigma Aldrich, Auckland, NZ) • 5. Penicillin-streptomycin solution: 10000 units/ml penicillin, 10 mg/ml streptomycin in 0.9% NaCl (Sigma Cat #P-0781). Stored at −20° C. • 6. For DLD-1 cells: DMEM culture medium (Invitrogen Cat #12100-046). Stored at 4° C. • 7. For NCI-N87 cells: RPMI-1640 medium modified to contain 2 mM L-glutamine, 10 mM HEPES, 1 mM sodium pyruvate, 4500 mg/L glucose, and 1500 mg/L sodium bicarbonate (Sigma R6504). Stored at 4° C. • 8. For KYSE-410 cells: RPMI-1640 medium modified to contain 2 mM L-glutamine (Sigma R6504). Stored at 4° C. • 9. For HCT-116 cells: McCoy's 5A medium modified to contain 2 mM L-glutamine (Sigma M48792). Stored at 4° C. • 10. Trypsin-EDTA solution: 0.25% Trypsin/EDTA, Invitrogen Cat#15400054 (×10 in stock). • 11. Phosphate buffered saline (PBS) (Prepared by TBL). • 12. Hanks Balanced Salt Solution (HBSS). (GIBCO Cat No. 14185-052). Stored at 4° C. • 13. Foetal Bovine Serum (GIBCO Cat #10091-148). Stored at −20° C. • 14. MTT Reagent: 100 mg/vial, (SIGMA Cat. No. M-2128) dissolved in PBS at 10 mg/ml and stored at −20° C. 5 mg/ml MTT solution will be prepared in PBS and stored at 4° C. as working solution. • 15. MTT lysis buffer: 10% sodium dodecyl sulphate (SDS)/45% Dimethyl Formamide (20 g SDS will be dissolved in 100 ml of double-distilled water (DDW), and 90 ml of Dimethyl Formamide will be added to the SDS solution). The pH will be adjusted to 4.7 by glacial acetic acid, and DDW added up to a final volume of 200 ml. • 16. 5-Fluorouracil (5-FU), (Sigma Cat. No. F-6627). Three working solutions will be prepared at 19.5 μg/ml. 6.5 μg/ml and 1.95 μg/ml dissolved in 15% Ethanol/HBSS. Final concentrations will be 1.95 μg/ml (15 μM), 0.65 μg/ml (5 μM) and 0.195 μg/ml (1.5 μM).
# (§5) The medium for the propagation of the each of the cells lines is given above. Each medium was prepared following the ATCC/ECACC instructions and supplemented with penicillin-streptomycin solution (10 ml per litre). FBS (at 10%) was added just before use.
# • 1. […]
# [2] = test system: human colorectal adenocarcinoma cells (DLD-1); assay: MTT anti-proliferative assay, DLD-1 (Examples 3-12); conditions: 200 μg/ml; for % inhibition / % stim. / Mean OD (570 nm): 48 hours
# Experimental: as §1, §2, §3, §4, §5
# • 1. […]
# [3] = test system: human oesophageal squamous cell carcinoma cell line (KYSE-30); assay: MTT anti-proliferative assay, KYSE-30 (Examples 3-13)
# [4] = test system: human oesophageal squamous cell carcinoma cell line (KYSE-30); assay: as above; conditions: Examples 3-12, 200 μg/ml, 48 hours
# Experimental: as §1, §2, §3, §4, §5
# • 1. […]
# [5] = test system: human colon cancer cell line (HCT-116); assay: MTT anti-proliferative assay, HCT-116 (Examples 3-12); conditions: 200 μg/ml; for % inhibition / % stim. / Mean OD (570 nm): 48 hours
# Experimental: as §1, §2, §3, §4, §5
# • 1. […]
# [6] = listed as 1,1-dimethylallylcaffeic acid
Compound,% inhibition [1],% stim. [1] [%],Mean OD (570 nm) [1],% inhibition [2],% stim. [2] [%],Mean OD (570 nm) [2],% inhibition [4],% stim. [4] [%],Mean OD (570 nm) [4],% inhibition [5],% stim. [5] [%],Mean OD (570 nm) [5],further results
"C=C(C)CCOC(=O)C=Cc1ccc(O)c(O)c1 [3-methyl-3-butenyl caffeate, 3-methyl-3-butenyl caffeic acid]",84.5% and 84.54%,0,0.0683,91.6% and 91.63%,0,0.0345,96.3% and 96.31%,0,0.0222,96.0% and 96.03%,0,0.0202,"% inhibition ([3]; Example 13, 10 μg/ml): 39.3% and 39.33%; Mean OD (570 nm) ([3]; Example 13, 10 μg/ml): 0.2034"
"1,1-dimethylallyl caffeic acid",86.74%,0,0.0586,93.24%,0,0.0279,97.8%,0,0.0133,96.73%,0,0.0166,"% inhibition [1, 6]: 86.7%; % inhibition [2, 6]: 93.2%; % inhibition ([3]; Example 13, 100 μg/ml): 88.63%; Mean OD (570 nm) ([3]; Example 13, 100 μg/ml): 0.0381; % inhibition [5, 6]: 86.7%"
COc1cc(/C=C/C(=O)OCc2ccccc2)ccc1O [benzyl ferulate],86.96%,0,0.0576,86.02%,0,0.0576,98.62%,0,0.0083,95.92%,0,0.0207,"inhibition at 200 µg/mL ([1]; Homo sapiens, NCI-N87, 48 h): 87%; inhibition at 200 µg/mL ([2]; Homo sapiens, DLD-1, 48 h): 86%; Mean OD (570 nm) ([3]; Example 13, 50 μg/ml): 0.0398; inhibition at 50 µg/mL ([3]; Homo sapiens, KYSE-30, Example 13, 50 μg/ml): 88.1%; inhibition at 200 µg/mL ([4]; Homo sapiens, KYSE-30, 48 h): 98.6%; inhibition at 200 µg/mL ([5]; Homo sapiens, HCT-116, 48 h): 95.9%"
